# Measured values as given in patent US11566062B2, “Methods for modulating protein mannosylation profiles using maduramycin, narasin, or salinomycin” (ARES TRADING S.A., priority 2017, dated 2023).
# “Also recorded” adds a separate entry of the source.
# Assays:
# Type in all cases: cell-based, Chinese hamster
# mAb1 cells [1] = experiment: Viable cell density and viability (ViCell) of mAb1 cells, fed-batch Ambr15; settings: 5 and 10 nM added at the start of the culture
# Description: (§1) Cells expressing mAb1 and mAb2 were inoculated at 0.2×10^6 cells per millilitre (mL).
# (§2) All assays were performed in fed-batch culture. A serum-free chemically defined culture medium was used. It was used as it is, or it was supplemented with polyether ionophore compounds (maduramycin, narasin, salinomycin and lasalocid were all purchased from Sigma-Aldrich) at the desired concentrations. The culture medium was fed, on a regular basis, with a chemically defined feed medium, as well as with glucose in order to keep said glucose level in the range of >0 to about 8 g/L (feeds were done at days 3, 5, 7, 10 and additional glucose feed at day 12).
# (§3) For examples 2 and 3, cultures were performed in Ambr®15 with a working volume of 14 mL (36.5° C., Dissolved Oxygen 40%, 0.1 ml/min N2, pH range: 6.75-7.15, 800 rpm). A temperature shift was performed at day 6 for the cells expressing mAb1. Further conditions are mentioned in Table 2.
# (§4) Each of the fed-batch culture lasted 14 days.
# (§5) Viable cell density and viability were measured with the ViCell® (Beckmann Coulter). Antibody titers were measured with PA-HPLC.
# (§6) The cells were cultivated and the results analysed as disclosed in the material and method section.
# mAb2 cells [2] = experiment: Titre (PA-HPLC) of mAb2 cells, fed-batch Ambr15
# Description: as §1, §2, §3, §4, §5, §6
# [3] = system: mannosylation level of mAb2; experiment: Glycosylation (mannosylation) profile of mAb2 by mass spectroscopy; settings: for total mannosylation: 10 nM added at the start; for impact on afucoslyated glycoforms: data non shown; for level of Man5 species / level of Man6 species (M6) / level of Man7 species: day 10, 10 nM added at the start of the culture; for level of fucosylated glycoforms: not shown
# Description: as §2, §3
# (§7) Glycosylation profiles were established either by Ultra Performance Liquid Chromatography-2-amino-benzamide labelling technique (2AB-UPLC; mAb1) or by mass spectroscopy (MS; mAB2). Groups of glycans were defined in Table 1.
# as §6
# mAb1 cells [4] = experiment: Antibody titre (PA-HPLC) of mAb1 cells, fed-batch Ambr15; settings: 5 and 10 nM added at the start of the culture
# Description: as §1, §2, §3, §4, §5, §6
# mAb2 cells [5] = experiment: Viable cell density (ViCell) of mAb2 cells, fed-batch Ambr15
# Description: as §1, §2, §3, §4, §5, §6
# [6] = system: mannosylation level of mAb1; experiment: Glycosylation (mannosylation) profile of mAb1 by 2AB-UPLC; parameters: level of ManS species / level of Man6 species (M6) / level of Man7 species / level of Man8 species / level of Man9 species: dose or concentration left out as unconfirmed; settings: for total mannosylation: 10 nM added at the start; for level of Man6 species (M6) / level of Man7 species / level of Man8 species / level of Man9 species / level of ManS species: day 12, added at the start of the culture
# Description: as §2, §3, §7, §6
# mAb1 cells [7] = experiment: Toxicity of the polyether ionophores: viable cell density (ViCell) in fed-batch SpinTubes culture; settings: all concentrations tested (100, 250, 500 and 1000 nM; as low as 100 nM), vs control
# Description: as §1, §2
# For example 1, cultures were performed in SpinTubes® with a working volume of 30 mL. They were incubated at 36.5° C., 5% de CO2, 80% humidity and shaken at 320 rpm. Salinomycin, narasin and maduramycin were tested at 100, 250, 500 and 1000 nM.
# as §4, §5
# The cells were cultivated and the results analysed as disclosed in the material and method section. It is noted that the controls (or control conditions) according to the present invention correspond to cells grown without any polyether ionophores.
# [8] = 10 nM added at the start of the culture
Compound,cell growth (VCD) at the end of culture compared to the control (mAb1 cells [1]) [%],impact on afucoslyated glycoforms [3],level of Man5 species [3],level of Man6 species (M6) [3],level of Man7 species [3],level of fucosylated glycoforms [3],protein titre at the end of culture compared to the control (mAb1 cells [4]) [%],level of Man6 species (M6) [6],level of Man7 species [6],level of Man8 species [6],level of Man9 species [6],level of ManS species [6],VCD decreased by a factor (mAb1 cells [7]),also measured
"CC[C@@H](C(=O)O)[C@@H]1O[C@@H]([C@@H](C)[C@H](O)[C@H](C)C(=O)[C@H](CC)[C@H]2O[C@]3(C=C[C@@H](O)[C@]4(CC[C@@](C)([C@H]5CC[C@](O)(CC)[C@H](C)O5)O4)O3)[C@H](C)C[C@@H]2C)[C@@H](C)C[C@@H]1C [narasin, Narasin]",−15,without deeply impacting afucoslyated glycoforms,about 16.5%,about 3%,about 1.0%,decreased,−15,about 6.5%,about 4.5%,about 3.5%,about 0.5%,about 32%,3,titre compared to the control (mAb2 cells [2]; 5 nM added at the start of the culture): +10%; titre compared to the control (mAb2 cells [2]; [8]): +15%; total mannosylation ([3]; after 10 days of culture): about 12.0%; total mannosylation ([3]; after 12 days of culture): 18.0%; impact on cell growth (mAb2 cells [5]; both concentrations (5 and 10 nM) added at the start of the culture): negative impact on cell growth; total mannosylation ([6]; after 12 days of culture): about 43%; total mannosylation ([6]; after 14 days of culture): 38.9%
"CC[C@@H](C(=O)[C@@H](C)[C@@H](O)[C@H](C)[C@@H]1O[C@@H]([C@@H](CC)C(=O)O)CC[C@@H]1C)[C@H]1O[C@]2(C=C[C@@H](O)[C@]3(CC[C@@](C)([C@H]4CC[C@](O)(CC)[C@H](C)O4)O3)O2)[C@H](C)C[C@@H]1C [salinomycin, Salinomycin]",−13,without deeply impacting afucoslyated glycoforms,about 15%,about 2.5%,about 0.65%,decreased,−15,about 3.2%,about 1.5%,about 0.3%,about 0.45%,about 27%,3,cell growth compared to the control at the end of culture (mAb2 cells [5]; [8]): not more than 10%
Lasalocid,,,,,,,,,,,,,,effect on mannosylation ([6]; concentration not given): no effect on mannosylation; also recorded: no impact on mannosylation
